PMC6812009, “Covalent Aurora A regulation by the metabolic integrator coenzyme A” (Redox Biology, 2019)

Legend:
Assay in all cases: Kinase profiling screen (radioactive filter-binding assay)
Type in all cases: biochemical
[1] = target: T1, EPH-B1 (Homo sapiens, UniProt P54762); settings: 100 μM compound, 20 μM ATP; read-out: Kinase activity, % of activity in the absence of inhibitor
T1 sequence (P54762 18-984): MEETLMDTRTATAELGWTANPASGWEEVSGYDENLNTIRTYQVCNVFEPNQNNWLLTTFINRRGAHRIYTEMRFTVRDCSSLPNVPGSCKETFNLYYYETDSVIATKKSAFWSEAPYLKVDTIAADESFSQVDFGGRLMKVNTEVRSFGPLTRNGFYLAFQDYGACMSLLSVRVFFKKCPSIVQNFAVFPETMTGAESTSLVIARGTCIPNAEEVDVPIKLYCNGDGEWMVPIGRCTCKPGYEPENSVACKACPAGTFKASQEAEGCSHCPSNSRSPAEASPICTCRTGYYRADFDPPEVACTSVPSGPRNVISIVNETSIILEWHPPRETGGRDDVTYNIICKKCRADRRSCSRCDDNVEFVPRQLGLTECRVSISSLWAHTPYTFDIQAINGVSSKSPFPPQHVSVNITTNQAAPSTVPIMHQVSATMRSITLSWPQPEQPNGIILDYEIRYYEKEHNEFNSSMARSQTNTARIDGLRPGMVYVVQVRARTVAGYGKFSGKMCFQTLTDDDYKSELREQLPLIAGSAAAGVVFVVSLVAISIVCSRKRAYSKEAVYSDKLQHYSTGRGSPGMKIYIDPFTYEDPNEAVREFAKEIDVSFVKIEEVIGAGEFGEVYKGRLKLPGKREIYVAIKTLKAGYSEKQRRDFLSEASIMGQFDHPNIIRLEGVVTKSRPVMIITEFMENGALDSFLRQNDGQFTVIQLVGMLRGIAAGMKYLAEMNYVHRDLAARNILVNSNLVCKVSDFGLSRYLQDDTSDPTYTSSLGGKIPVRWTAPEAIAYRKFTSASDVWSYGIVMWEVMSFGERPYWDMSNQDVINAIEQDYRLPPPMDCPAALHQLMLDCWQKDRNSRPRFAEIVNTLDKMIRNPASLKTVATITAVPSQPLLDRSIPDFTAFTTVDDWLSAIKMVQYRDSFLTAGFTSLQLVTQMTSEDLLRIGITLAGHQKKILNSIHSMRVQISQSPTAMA
Summary of the method: (§1)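 Across 117 protein kinases, duplicate in vitro measurements were made with CoA, dpCoA and ADP present at 100 μM final. Each reaction used recombinant kinase, a model substrate and an optimal concentration of ATP.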

[2] = target: BRK (Homo sapiens, UniProt Q13882); settings: 100 μM compound, 20 μM ATP; read-out: Kinase activity, % of activity in the absence of inhibitor
Sequence of BRK (Q13882 whole entry): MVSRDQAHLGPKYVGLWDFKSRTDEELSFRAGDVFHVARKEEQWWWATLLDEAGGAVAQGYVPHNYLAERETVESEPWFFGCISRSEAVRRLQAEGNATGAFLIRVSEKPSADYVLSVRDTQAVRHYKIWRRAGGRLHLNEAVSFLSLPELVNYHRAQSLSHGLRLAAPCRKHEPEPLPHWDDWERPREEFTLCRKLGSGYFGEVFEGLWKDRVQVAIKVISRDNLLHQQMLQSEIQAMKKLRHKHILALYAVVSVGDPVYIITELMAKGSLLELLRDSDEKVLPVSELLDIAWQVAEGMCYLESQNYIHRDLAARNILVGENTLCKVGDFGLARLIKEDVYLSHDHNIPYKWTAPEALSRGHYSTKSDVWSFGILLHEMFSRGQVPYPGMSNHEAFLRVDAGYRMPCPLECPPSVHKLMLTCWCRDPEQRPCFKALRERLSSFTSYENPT
Summary of the method: as §1

[3] = target: RIPK2 (Homo sapiens, UniProt O43353); settings: 100 μM compound, 20 μM ATP; read-out: Kinase activity, % of activity in the absence of inhibitor
Sequence of RIPK2 (O43353 whole entry): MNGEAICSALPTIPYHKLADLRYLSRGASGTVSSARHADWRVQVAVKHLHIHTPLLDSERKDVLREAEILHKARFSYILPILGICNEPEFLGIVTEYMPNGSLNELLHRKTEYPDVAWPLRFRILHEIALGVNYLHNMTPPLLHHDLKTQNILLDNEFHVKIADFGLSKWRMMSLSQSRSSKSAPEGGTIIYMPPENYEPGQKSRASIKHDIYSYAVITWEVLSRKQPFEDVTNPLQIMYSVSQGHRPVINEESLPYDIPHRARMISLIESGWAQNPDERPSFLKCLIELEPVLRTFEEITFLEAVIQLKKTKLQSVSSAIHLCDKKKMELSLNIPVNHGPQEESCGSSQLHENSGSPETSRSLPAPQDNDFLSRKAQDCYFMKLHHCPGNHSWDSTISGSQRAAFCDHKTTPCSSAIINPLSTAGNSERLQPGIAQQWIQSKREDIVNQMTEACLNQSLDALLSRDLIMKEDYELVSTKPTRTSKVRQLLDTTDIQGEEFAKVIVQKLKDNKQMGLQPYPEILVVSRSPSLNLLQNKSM
Summary of the method: as §1

[4] = target: MELK (Homo sapiens, UniProt Q14680); settings: 100 μM compound, 50 μM ATP; read-out: Kinase activity, % of activity in the absence of inhibitor
Sequence of MELK (Q14680 whole entry): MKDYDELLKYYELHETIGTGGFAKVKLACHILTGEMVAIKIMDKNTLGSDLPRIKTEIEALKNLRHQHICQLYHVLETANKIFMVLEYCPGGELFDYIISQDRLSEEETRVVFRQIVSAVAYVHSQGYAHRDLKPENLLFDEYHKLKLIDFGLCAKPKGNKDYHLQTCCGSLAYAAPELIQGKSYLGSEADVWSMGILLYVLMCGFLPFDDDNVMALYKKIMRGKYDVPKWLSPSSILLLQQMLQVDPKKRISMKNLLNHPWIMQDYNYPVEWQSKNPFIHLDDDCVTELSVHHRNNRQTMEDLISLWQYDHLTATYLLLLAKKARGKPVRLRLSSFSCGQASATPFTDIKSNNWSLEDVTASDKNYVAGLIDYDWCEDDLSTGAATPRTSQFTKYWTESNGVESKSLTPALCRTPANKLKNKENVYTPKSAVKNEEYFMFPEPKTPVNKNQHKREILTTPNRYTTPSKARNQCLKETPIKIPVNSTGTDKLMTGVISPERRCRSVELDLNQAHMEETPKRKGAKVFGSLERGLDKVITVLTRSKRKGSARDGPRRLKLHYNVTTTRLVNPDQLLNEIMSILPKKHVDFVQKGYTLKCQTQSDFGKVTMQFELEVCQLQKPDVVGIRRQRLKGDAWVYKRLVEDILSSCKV
Summary of the method: as §1

[5] = target: T2, LKB1 (Homo sapiens, UniProt Q15831); settings: 100 μM compound, 20 μM ATP; read-out: Kinase activity, % of activity in the absence of inhibitor
T2 sequence (Q15831 1-433): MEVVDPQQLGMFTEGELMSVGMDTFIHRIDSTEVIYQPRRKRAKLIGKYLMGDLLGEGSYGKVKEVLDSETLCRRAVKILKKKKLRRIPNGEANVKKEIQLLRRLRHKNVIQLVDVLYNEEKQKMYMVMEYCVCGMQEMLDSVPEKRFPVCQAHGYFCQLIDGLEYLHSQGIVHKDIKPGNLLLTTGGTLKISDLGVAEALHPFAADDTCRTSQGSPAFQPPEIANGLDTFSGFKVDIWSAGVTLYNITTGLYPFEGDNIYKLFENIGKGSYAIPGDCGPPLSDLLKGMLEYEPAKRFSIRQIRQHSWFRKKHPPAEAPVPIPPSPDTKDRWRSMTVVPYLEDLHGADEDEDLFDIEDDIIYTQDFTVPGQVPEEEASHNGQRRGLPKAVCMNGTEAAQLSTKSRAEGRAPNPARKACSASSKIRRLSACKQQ
T2 sequence (Q7RTN6 1-431 partner): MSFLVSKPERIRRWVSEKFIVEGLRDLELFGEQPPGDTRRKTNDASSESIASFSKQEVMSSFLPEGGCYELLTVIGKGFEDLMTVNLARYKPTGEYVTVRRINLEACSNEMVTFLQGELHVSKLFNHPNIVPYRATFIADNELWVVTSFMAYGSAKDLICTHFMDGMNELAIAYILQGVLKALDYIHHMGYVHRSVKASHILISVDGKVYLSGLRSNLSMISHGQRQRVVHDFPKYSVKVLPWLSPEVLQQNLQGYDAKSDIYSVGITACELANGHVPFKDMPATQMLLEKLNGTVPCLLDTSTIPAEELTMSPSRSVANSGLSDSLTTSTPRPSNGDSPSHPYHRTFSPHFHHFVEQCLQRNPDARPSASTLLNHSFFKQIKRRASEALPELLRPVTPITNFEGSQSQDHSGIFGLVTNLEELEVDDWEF
T2 sequence (Q9Y376 1-341 partner): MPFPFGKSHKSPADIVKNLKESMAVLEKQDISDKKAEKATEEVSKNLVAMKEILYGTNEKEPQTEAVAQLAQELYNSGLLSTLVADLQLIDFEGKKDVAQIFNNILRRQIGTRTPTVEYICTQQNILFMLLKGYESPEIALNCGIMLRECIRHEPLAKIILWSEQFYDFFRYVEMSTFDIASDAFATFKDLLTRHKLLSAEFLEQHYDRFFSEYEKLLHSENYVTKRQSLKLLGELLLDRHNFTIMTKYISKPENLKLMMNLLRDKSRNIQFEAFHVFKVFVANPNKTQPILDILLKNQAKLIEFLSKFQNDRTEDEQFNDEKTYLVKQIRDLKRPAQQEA
Summary of the method: as §1

SMILES | activity at 100 µM [1] [%] | activity at 100 µM [2] [%] | activity at 100 µM [3] [%] | activity at 100 µM [4] [%] | activity at 100 µM [5] [%]
Nc1ncnc2c1ncn2C1OC(COP(=O)(O)OP(=O)(O)O)C(O)C1O (stereo not drawn) [ADP] | 11.6 | 41.3 | 46 | 63.5 | 71
CC(C)(COP(=O)(O)OP(=O)(O)OC[C@H]1O[C@@H](n2cnc3c(N)ncnc32)[C@H](O)[C@@H]1OP(=O)(O)O)[C@@H](O)C(=O)NCCC(=O)NCCS [CoA, Coenzyme A] | 117 | 114 | 131 | 76.3 | 103
CC(C)(COP(=O)(O)OP(=O)(O)OCC1OC(n2cnc3c(N)ncnc32)C(O)C1O)C(O)C(=O)NCCC(=O)NCCS (stereo not drawn) [dpCoA, dephospho-CoA] | 80 | 83.1 | 88.4 | 104 | 81.1
